ChEMBL document CHEMBL1201862, “PubChem BioAssay data set” (2004)
“And” between values parts separate entries of the source, which are not always exact repeats. Equal values may be shown once.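 A five-concentration, 48-hour dose response in 96-well plates underlies each endpoint, interpolated linearly between surrounding concentrations. Abbreviation: GI50, concentration required for 50% inhibition of growth.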 The source made the active and inactive calls. Cut-off read from the data, not from the text of the source: active = GI50 up to about 1.1 µM and inactive = higher.

What was measured:
Experiment in all cases: NCI tumour cell line growth inhibition, 48 h
OVCAR-5 = system: OVCAR-5
M14 = system: M14
CCRF-CEM = system: CCRF-CEM
OVCAR-8 = system: OVCAR-8
OVCAR-3 = system: OVCAR-3
LOX IMVI = system: LOX IMVI
SN12C = system: SN12C
SK-MEL-2 = system: SK-MEL-2
SK-MEL-5 = system: SK-MEL-5
SF-539 = system: SF-539
ACHN = system: ACHN
SF-295 = system: SF-295
DLD-1 = system: DLD-1
CAKI-1 = system: CAKI-1
UO-31 = system: UO-31
HT-29 = system: HT-29
SR = system: SR
MDA-N = system: MDA-N
PC-3 = system: PC-3
MCF7 = system: MCF7

Measured: GI50

COc1c2nc(CCl)[nH]c(=O)c2c(OC)c2nc(CCl)[nH]c(=O)c12
inactive: OVCAR-5 > 100 µM | M14 > 100 µM | CCRF-CEM > 100 µM | OVCAR-8 > 100 µM | OVCAR-3 > 100 µM | LOX IMVI > 100 µM | SN12C > 100 µM | SK-MEL-2 > 100 µM | SK-MEL-5 > 100 µM | SF-539 > 100 µM | ACHN > 100 µM | SF-295 > 100 µM | DLD-1 > 100 µM | CAKI-1 > 100 µM | UO-31 > 100 µM | HT-29 > 100 µM

CC1(C)c2ccccc2N2O[C@@H]3C(=O)N(c4ccccc4)C(=O)[C@@H]3C21c1ccccc1 (some centres not stated)
inactive: M14 > 100 µM | CCRF-CEM 52.8 µM | OVCAR-8 > 100 µM | OVCAR-3 > 100 µM | LOX IMVI > 100 µM | SN12C > 100 µM | SK-MEL-2 > 100 µM | SK-MEL-5 > 100 µM | SF-539 > 100 µM | SF-295 > 100 µM | DLD-1 > 100 µM | CAKI-1 > 100 µM | UO-31 > 100 µM | HT-29 > 100 µM

N#C/N=C(/NCCc1c[nH]c2ccccc12)Oc1ccccc1
inactive: OVCAR-5 > 100 µM | M14 78.5 µM | CCRF-CEM 21.9 µM | OVCAR-8 > 100 µM | SR 35 µM | OVCAR-3 > 100 µM | LOX IMVI 77.4 µM | SN12C > 100 µM | SK-MEL-5 35.6 µM | SF-539 97.9 µM | ACHN 27.4 µM | SF-295 45.8 µM | DLD-1 > 100 µM | UO-31 23.4 µM | HT-29 34.8 µM

CC(C)OP(=O)(NC(=S)c1ccccc1)OC(C)C
inactive: OVCAR-5 > 100 µM | M14 > 100 µM | CCRF-CEM 74.5 µM | OVCAR-8 > 100 µM | OVCAR-3 > 100 µM | LOX IMVI > 100 µM | SN12C 95.1 µM | SK-MEL-2 > 100 µM | SK-MEL-5 34.5 µM | SF-539 > 100 µM | ACHN > 100 µM | SF-295 > 100 µM | DLD-1 > 100 µM | CAKI-1 > 100 µM | UO-31 > 100 µM | HT-29 43.5 µM

N#CC(C#N)=Cc1c(O)ccc2ccccc12
inactive: OVCAR-5 17 µM | M14 13.8 µM | CCRF-CEM 1.57 µM | OVCAR-8 16.3 µM | MDA-N 12.7 µM | SR 4.17 µM | OVCAR-3 13.7 µM | LOX IMVI 12.1 µM | SN12C 13.6 µM | SK-MEL-2 13.7 µM | SK-MEL-5 13.3 µM | SF-539 10.6 µM | PC-3 17.5 µM | ACHN 10.4 µM | SF-295 15 µM | CAKI-1 14.1 µM | UO-31 14 µM | HT-29 14.5 µM | MCF7 10.1 µM

COCC1OC(Sc2ccccc2)C(O)C(OC)C1OC (configuration not stated)
inactive: OVCAR-5 > 100 µM | M14 > 100 µM | CCRF-CEM > 100 µM and 52.4 µM | OVCAR-8 > 100 µM | MDA-N > 100 µM | SR > 100 µM | OVCAR-3 > 100 µM | LOX IMVI > 100 µM | SN12C > 100 µM | SK-MEL-2 > 100 µM | SK-MEL-5 > 100 µM | SF-539 > 100 µM | PC-3 > 100 µM | ACHN > 100 µM | SF-295 > 100 µM | CAKI-1 > 100 µM | UO-31 > 100 µM | HT-29 > 100 µM | MCF7 > 100 µM

C=C(C)C1CCC2(CO)C(O)CC3(C)C(CCC4C5(C)CCC(O)C(C)(C)C5CCC43C)C12 (configuration not stated)
inactive: OVCAR-5 > 100 µM | M14 18.6 µM | CCRF-CEM 50 µM | OVCAR-8 3.85 µM | MDA-N 12.1 µM | SR 42.8 µM | OVCAR-3 11.4 µM | LOX IMVI 9.98 µM | SN12C 16.5 µM | SK-MEL-2 10.3 µM | SK-MEL-5 5.14 µM | SF-539 12.7 µM | PC-3 6.01 µM | ACHN 3.57 µM | SF-295 2.84 µM | CAKI-1 3.73 µM | UO-31 3.82 µM | HT-29 6.53 µM | MCF7 11.6 µM

COc1ccc(NC(C)=O)c(C(O)CCNC(C)=O)c1 (configuration not stated)
inactive: OVCAR-5 > 100 µM | M14 > 100 µM | CCRF-CEM > 100 µM | OVCAR-8 > 100 µM | MDA-N > 100 µM | SR > 100 µM | OVCAR-3 > 100 µM | LOX IMVI > 100 µM | SN12C > 100 µM | SK-MEL-2 > 100 µM | SK-MEL-5 > 100 µM | SF-539 > 100 µM | PC-3 > 100 µM | ACHN > 100 µM | SF-295 > 100 µM | CAKI-1 > 100 µM | UO-31 > 100 µM | HT-29 > 100 µM | MCF7 > 100 µM

CN1C(=O)n2c(nc3ccccc32)C(N=[N+]=[N-])(N=[N+]=[N-])C1=O (configuration not stated)
inactive: OVCAR-5 > 100 µM | M14 > 100 µM | CCRF-CEM 68.9 µM | OVCAR-8 > 100 µM | OVCAR-3 > 100 µM | LOX IMVI 77.3 µM | SK-MEL-2 > 100 µM | SK-MEL-5 > 100 µM | SF-539 > 100 µM | ACHN > 100 µM | SF-295 > 100 µM | DLD-1 > 100 µM | CAKI-1 35.2 µM | UO-31 > 100 µM | HT-29 > 100 µM

O=[N+]([O-])C(=C1NCCN1)/C(Cl)=C(\Cl)Br
inactive: OVCAR-5 > 100 µM | M14 38.3 µM | CCRF-CEM 7.1 µM | OVCAR-8 40.3 µM | MDA-N 34.5 µM | SR 21.5 µM | OVCAR-3 18 µM | LOX IMVI 15.7 µM | SN12C 41.2 µM | SK-MEL-2 45.6 µM | SK-MEL-5 51.9 µM | SF-539 > 63 µM | PC-3 > 59.4 µM | ACHN 38.2 µM | SF-295 > 100 µM | CAKI-1 16.3 µM | UO-31 84.1 µM | HT-29 30.1 µM | MCF7 30.3 µM

Cc1cc(Cl)nc2ccc(Cc3ccc4nc(Cl)cc(C)c4c3)cc12
inactive: OVCAR-5 > 100 µM | M14 85.3 µM | CCRF-CEM > 100 µM | OVCAR-8 28.6 µM | MDA-N 47.3 µM | SR 85.3 µM | OVCAR-3 39.3 µM | LOX IMVI 56.5 µM | SN12C 85.1 µM | SK-MEL-2 47.5 µM | SK-MEL-5 23.8 µM | SF-539 12.6 µM | PC-3 42.7 µM | ACHN 16 µM | SF-295 22 µM | CAKI-1 39.8 µM | UO-31 37.6 µM | HT-29 68.5 µM | MCF7 19.1 µM

COc1ccc2c3c(coc13)C(CCC(=O)O)CC2 (configuration not stated)
inactive: M14 > 100 µM | OVCAR-8 > 100 µM | OVCAR-3 > 100 µM | LOX IMVI > 100 µM | SN12C > 100 µM | SK-MEL-5 > 100 µM | SF-539 > 100 µM | ACHN > 100 µM | SF-295 > 100 µM | DLD-1 > 100 µM | CAKI-1 38.7 µM | HT-29 > 100 µM
